Data: the NIST ThermoML archive (doi:10.1016/j.jct.2016.03.030)

Assay: molar heat capacity at constant pressure; xn = mol fraction of the nth substance listed
Details: 100 kPa, Liquid, Small sample (50 mg) DSC

CCCC[N+]1(C)CCOCC1.[Br-] [4-butyl-4-methylmorpholinium bromide] + O
molar heat capacity at constant pressure [J/K/mol]
Details	298.15 K	303.15 K	308.15 K	313.15 K	318.15 K	323.15 K	328.15 K	333.15 K	338.15 K	343.15 K
x1 = 0.0363	87.85	87.9	88.24	88.5	88.76	89.02	89.23	89.41	89.57	89.8
x1 = 0.0601	94.21	94.49	95.08	95.61	96.11	96.14	96.74	97.08	97.24	97.27
x1 = 0.1242	111.81	112.44	113.49	114.39	115.3	116.21	117.02	117.79	118.61	119.34
x1 = 0.2383	149.98	150.75	152.16	153.36	154.56	155.82	156.95	158.08	159.21	160.26
x1 = 0.2569	154.14	155.11	156.45	157.64	158.76	160.03	161.22	162.27	163.39	164.51
x1 = 0.3007	165.4	166.24	167.67	168.93	170.11	171.54	172.72	173.82	175	176.09

CCCCC[N+]1(C)CCOCC1.[Br-] [4-methyl-4-pentylmorpholinium bromide] + O
molar heat capacity at constant pressure [J/K/mol]
Details	298.15 K	303.15 K	308.15 K	313.15 K	318.15 K	323.15 K	328.15 K	333.15 K	338.15 K	343.15 K
x1 = 0.0316	94.11	94.16	94.44	94.72	94.98	95.31	95.54	95.76	95.94	96.1
x1 = 0.0695	105.99	106.33	106.88	107.4	107.91	108.43	108.87	109.28	109.73	110.14
x1 = 0.1522	133.02	133.71	134.95	135.91	136.93	138.01	138.86	139.78	140.69	141.55
x1 = 0.2054	153.72	154.58	156.03	157.22	158.41	159.6	160.73	161.92	163.04	164.03
x1 = 0.219	149.69	150.59	151.97	153.29	154.54	155.79	156.96	158	159.04	160.08
x1 = 0.2438	159.53	160.5	161.93	163.21	164.56	165.91	167.26	168.39	169.59	170.72
x1 = 0.2754	165.68	166.67	168.15	169.64	170.96	172.28	173.51	174.92	176.15	177.39

CCC[N+]1(C)CCOCC1.[Br-] [4-methyl-4-propylmorpholinium bromide] + O
molar heat capacity at constant pressure [J/K/mol]
Details	298.15 K	303.15 K	308.15 K	313.15 K	318.15 K	323.15 K	328.15 K	333.15 K	338.15 K	343.15 K
x1 = 0.0336	82.58	82.9	83.23	83.53	83.78	84.05	84.28	84.5	84.72	84.95
x1 = 0.0618	89.62	89.92	90.54	91.03	91.49	92.05	92.45	92.91	93.25	93.65
x1 = 0.1298	107.63	108.21	109.1	110	110.81	111.61	112.42	113.09	113.81	114.43
x1 = 0.2036	125.06	125.72	126.8	127.7	128.6	129.5	130.16	130.58	130.94	131.12
x1 = 0.2742	132.6	133.19	134.31	135.28	136.1	137.14	137.89	138.56	139.23	140.05
x1 = 0.3025	146.99	147.64	148.84	149.81	150.85	151.81	152.7	153.5	154.39	155.03
